ChEMBL document CHEMBL1201862, “PubChem BioAssay data set” (2004)
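Each compound was tested at five concentrations against cells in 96-well plates for 48 hours. GI50 = concentration required for 50% inhibition of growth.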 The source made the active and inactive calls. No stated cut-off is given here; in the data, active = GI50 up to about 1.1 µM and inactive = higher.

How the values were obtained:
Assay in all cases: NCI anticancer screen, dose series, 48 h
SW-620 = test system: SW-620
Malme-3M = test system: Malme-3M
TK-10 = test system: TK-10
UACC-62 = test system: UACC-62
NCI-H23 = test system: NCI-H23
SNB-75 = test system: SNB-75
HL-60 = test system: HL-60
KM12 = test system: KM12
IGROV-1 = test system: IGROV-1
UACC-257 = test system: UACC-257
A549 = test system: A549
SK-MEL-5 = test system: SK-MEL-5
HOP-92 = test system: HOP-92
HOP-62 = test system: HOP-62
OVCAR-8 = test system: OVCAR-8
SF-268 = test system: SF-268
CCRF-CEM = test system: CCRF-CEM
OVCAR-4 = test system: OVCAR-4
SF-295 = test system: SF-295
OVCAR-3 = test system: OVCAR-3

Measured: GI50

CCOC(=O)C1CCCc2sc(N)c(C#N)c21 (stereo unspecified)
inactive: SW-620 > 100 µM | Malme-3M > 100 µM | TK-10 > 100 µM | UACC-62 > 100 µM | NCI-H23 > 100 µM | SNB-75 > 100 µM | HL-60 > 100 µM | KM12 > 100 µM | IGROV-1 > 100 µM | UACC-257 > 100 µM | A549 > 100 µM | SK-MEL-5 > 100 µM | HOP-92 70.6 µM | HOP-62 > 100 µM | OVCAR-8 > 100 µM

O=C(NNC(=S)Nc1ccc(Cl)cc1)c1cc(-c2ccccc2)nc2ccccc12
inactive: SF-268 11.7 µM | SW-620 4.91 µM | CCRF-CEM 1.66 µM | Malme-3M 4.6 µM | TK-10 7.19 µM | UACC-62 2.9 µM | NCI-H23 4.94 µM | SNB-75 4.9 µM | OVCAR-4 10.5 µM | SF-295 2.52 µM | KM12 4.49 µM | IGROV-1 5.96 µM | UACC-257 5.55 µM | A549 7.11 µM | SK-MEL-5 3.73 µM | HOP-92 3.59 µM | HOP-62 6.12 µM | OVCAR-8 8.11 µM | OVCAR-3 2.66 µM

C[C@@H](NC(=O)[C@@H]1C[C@]1(C)CO)c1cccc2ccccc12
inactive: SF-268 > 100 µM | SW-620 > 100 µM | CCRF-CEM > 100 µM | Malme-3M > 100 µM | TK-10 > 100 µM | UACC-62 > 100 µM | NCI-H23 > 100 µM | SNB-75 > 100 µM | OVCAR-4 > 100 µM | SF-295 > 100 µM | KM12 > 100 µM | IGROV-1 > 100 µM | UACC-257 > 100 µM | A549 > 100 µM | SK-MEL-5 > 100 µM | HOP-92 > 100 µM | HOP-62 > 100 µM | OVCAR-8 > 100 µM | OVCAR-3 > 100 µM

Cc1ccc(/C=N/Nc2ncccn2)s1
inactive: SF-268 > 100 µM | SW-620 > 100 µM | CCRF-CEM > 100 µM | Malme-3M > 100 µM | TK-10 > 100 µM | UACC-62 > 100 µM | NCI-H23 > 100 µM | SNB-75 > 100 µM | OVCAR-4 > 100 µM | SF-295 > 100 µM | KM12 > 100 µM | IGROV-1 > 100 µM | UACC-257 > 100 µM | A549 > 100 µM | SK-MEL-5 > 100 µM | HOP-92 > 100 µM | HOP-62 > 100 µM | OVCAR-8 > 100 µM | OVCAR-3 > 100 µM

COc1ccc(OC)c2sc(N3C(=O)/C(=C/Cc4ccco4)N=C3c3ccccc3)nc12
inactive: SF-268 34 µM | SW-620 32.5 µM | CCRF-CEM 11.7 µM | TK-10 > 100 µM | UACC-62 21.8 µM | SNB-75 24.7 µM | HL-60 18.1 µM | OVCAR-4 32 µM | SF-295 73.1 µM | KM12 38.8 µM | IGROV-1 30.6 µM | UACC-257 > 100 µM | A549 34.7 µM | SK-MEL-5 21.2 µM | HOP-92 35.8 µM | HOP-62 43 µM | OVCAR-8 33.5 µM | OVCAR-3 31.4 µM

CCOC(=O)/C=C/CCO[Si](C)(C)C(C)(C)C
inactive: SF-268 > 100 µM | SW-620 > 100 µM | CCRF-CEM > 100 µM | Malme-3M > 100 µM | TK-10 > 100 µM | UACC-62 > 100 µM | NCI-H23 > 100 µM | SNB-75 82.8 µM | OVCAR-4 > 100 µM | SF-295 > 100 µM | KM12 > 100 µM | IGROV-1 > 100 µM | UACC-257 > 100 µM | A549 > 100 µM | SK-MEL-5 > 100 µM | HOP-92 > 100 µM | HOP-62 > 100 µM | OVCAR-8 > 100 µM | OVCAR-3 > 100 µM

Cc1cc(Br)cc(C)c1NC(=O)C(=O)C1C(=O)C(CC2C(=O)c3ccccc3C2=O)C(=O)CC1(C)C (stereo unspecified)
inactive: SF-268 > 100 µM | SW-620 > 100 µM | CCRF-CEM 41.7 µM | TK-10 > 100 µM | UACC-62 90.2 µM | NCI-H23 84.1 µM | SNB-75 > 100 µM | HL-60 28.5 µM | OVCAR-4 39.5 µM | SF-295 > 100 µM | KM12 > 100 µM | IGROV-1 29.9 µM | UACC-257 > 100 µM | A549 79.6 µM | SK-MEL-5 > 100 µM | HOP-92 55.3 µM | HOP-62 > 100 µM | OVCAR-8 > 100 µM | OVCAR-3 > 100 µM

COC(OC)C(C)CC(=O)N(C)C (stereo unspecified)
inactive: SF-268 > 100 µM | SW-620 > 100 µM | CCRF-CEM > 100 µM | TK-10 > 100 µM | UACC-62 > 100 µM | SNB-75 > 100 µM | HL-60 > 100 µM | OVCAR-4 > 100 µM | SF-295 > 100 µM | KM12 > 100 µM | IGROV-1 > 100 µM | A549 > 100 µM | SK-MEL-5 > 100 µM | HOP-92 > 100 µM | HOP-62 > 100 µM | OVCAR-8 > 100 µM | OVCAR-3 > 100 µM

[N-]=[N+]=NI1OC(C(F)(F)F)(C(F)(F)F)c2ccccc21
inactive: SF-268 13.6 µM | SW-620 19.1 µM | CCRF-CEM 7.85 µM | TK-10 16.5 µM | UACC-62 18 µM | NCI-H23 17.8 µM | SNB-75 13.5 µM | HL-60 15.4 µM | OVCAR-4 15.1 µM | SF-295 16 µM | KM12 15.6 µM | IGROV-1 16.3 µM | UACC-257 24.5 µM | A549 14.9 µM | SK-MEL-5 1.24 µM | HOP-92 13.4 µM | HOP-62 15.1 µM | OVCAR-8 16.3 µM | OVCAR-3 14.7 µM

c1ccc(-c2cc(-c3cc(-c4ccccn4)[nH]n3)n[nH]2)nc1
inactive: SF-268 > 100 µM | SW-620 > 100 µM | Malme-3M > 100 µM | UACC-62 > 100 µM | NCI-H23 95.5 µM | SNB-75 69.8 µM | HL-60 84.3 µM | OVCAR-4 > 100 µM | SF-295 85.5 µM | KM12 > 100 µM | IGROV-1 > 100 µM | UACC-257 > 100 µM | A549 75.2 µM | SK-MEL-5 > 100 µM | HOP-92 77.8 µM | HOP-62 92.9 µM | OVCAR-8 > 100 µM | OVCAR-3 74.1 µM

CN1C(=O)C(=CNc2ccccc2Cl)C(=O)N(C)C1=O
inactive: SF-268 > 100 µM | SW-620 > 100 µM | CCRF-CEM 14.6 µM | Malme-3M > 100 µM | TK-10 > 100 µM | UACC-62 > 100 µM | NCI-H23 > 100 µM | SNB-75 > 100 µM | OVCAR-4 18.3 µM | SF-295 17.7 µM | KM12 > 100 µM | IGROV-1 > 100 µM | UACC-257 > 100 µM | A549 21.7 µM | SK-MEL-5 > 100 µM | HOP-92 > 100 µM | HOP-62 19.8 µM | OVCAR-8 > 100 µM | OVCAR-3 15.2 µM
